Reference: patent publication US20230364057A1, “BACTERIAL DNA GYRASE INHIBITORS AND METHODS OF USE THEREOF” (THE FLORIDA INTERNATIONAL UNIVERSITY BOARD OF TRUSTEES, priority 2022, published 2023)
≈ marks a conversion by molar mass, not a printed value. Where “and” joins values, the source holds several entries; their conditions need not be identical. Equal entries are not always repeated. Entries after “also recorded” stand apart in the source; their conditions may differ. Where two headings read alike, the source gives them in different places.

Experiments:
E. coli DNA gyrase [1] = biological target: T1, E. coli DNA gyrase (Escherichia coli (strain K12), UniProt P0AES4+P0AES6); assay: biochemical; type: biochemical
[2] = biological target: human DNA topoisomerase 2α (Homo sapiens (Human), UniProt P11388); assay: Human DNA topoisomerase 2α-mediated DNA cleavage assay; type: biochemical; conditions: pBR322
human DNA topoisomerase 2α, sequence (P11388 whole entry): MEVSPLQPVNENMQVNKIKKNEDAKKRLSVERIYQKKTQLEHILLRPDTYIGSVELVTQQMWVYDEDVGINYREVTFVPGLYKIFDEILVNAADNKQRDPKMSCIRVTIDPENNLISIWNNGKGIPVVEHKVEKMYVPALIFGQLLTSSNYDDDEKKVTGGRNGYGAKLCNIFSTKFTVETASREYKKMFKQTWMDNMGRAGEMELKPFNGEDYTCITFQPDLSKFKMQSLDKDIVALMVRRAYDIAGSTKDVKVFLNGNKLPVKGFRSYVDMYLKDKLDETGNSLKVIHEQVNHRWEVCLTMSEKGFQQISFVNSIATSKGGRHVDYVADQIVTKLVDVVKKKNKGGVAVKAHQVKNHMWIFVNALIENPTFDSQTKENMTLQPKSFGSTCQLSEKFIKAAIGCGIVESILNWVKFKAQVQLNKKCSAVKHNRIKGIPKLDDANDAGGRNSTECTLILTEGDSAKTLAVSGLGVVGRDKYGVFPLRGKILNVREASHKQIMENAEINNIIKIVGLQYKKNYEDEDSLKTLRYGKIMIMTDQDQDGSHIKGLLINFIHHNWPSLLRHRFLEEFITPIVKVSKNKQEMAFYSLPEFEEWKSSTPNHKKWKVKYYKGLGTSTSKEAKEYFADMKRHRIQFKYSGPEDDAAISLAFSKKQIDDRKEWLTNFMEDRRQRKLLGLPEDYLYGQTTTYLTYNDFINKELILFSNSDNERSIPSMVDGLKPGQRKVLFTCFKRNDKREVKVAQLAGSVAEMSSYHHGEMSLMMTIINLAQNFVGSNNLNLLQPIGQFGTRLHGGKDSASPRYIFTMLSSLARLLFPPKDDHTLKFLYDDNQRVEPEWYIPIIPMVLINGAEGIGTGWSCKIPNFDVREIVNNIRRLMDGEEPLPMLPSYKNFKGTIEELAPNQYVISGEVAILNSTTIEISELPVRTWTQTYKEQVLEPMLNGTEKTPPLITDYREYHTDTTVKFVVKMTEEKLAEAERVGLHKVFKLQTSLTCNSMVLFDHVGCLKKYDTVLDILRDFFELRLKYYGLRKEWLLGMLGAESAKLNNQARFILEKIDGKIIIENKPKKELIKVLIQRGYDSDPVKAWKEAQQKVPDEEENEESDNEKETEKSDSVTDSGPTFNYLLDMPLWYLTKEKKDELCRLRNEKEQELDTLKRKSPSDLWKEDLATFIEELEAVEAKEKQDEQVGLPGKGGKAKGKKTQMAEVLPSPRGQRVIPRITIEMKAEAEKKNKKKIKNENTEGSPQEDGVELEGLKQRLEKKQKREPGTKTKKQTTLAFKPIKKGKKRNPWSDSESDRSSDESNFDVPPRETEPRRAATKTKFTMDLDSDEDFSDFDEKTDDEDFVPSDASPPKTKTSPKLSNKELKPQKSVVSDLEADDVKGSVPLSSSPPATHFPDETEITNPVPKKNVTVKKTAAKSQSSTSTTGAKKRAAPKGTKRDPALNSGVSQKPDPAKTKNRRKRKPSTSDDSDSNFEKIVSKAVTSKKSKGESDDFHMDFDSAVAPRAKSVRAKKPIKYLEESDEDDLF

[3] = biological target: human DNA topoisomerase IIα (Homo sapiens (Human), UniProt P11388); assay: Agarose gel-based inhibition assay against human DNA topoisomerase IIα; type: biochemical; conditions: for inhibition of human DNA topoisomerase IIα: gallates at 100 µM
human DNA topoisomerase IIα, sequence (P11388 whole entry): as above

E. coli DNA gyrase [4] = biological target: T1, E. coli DNA gyrase; assay: DNA gyrase mediated DNA cleavage assay; type: biochemical; conditions: pBR322
Description: 250 ng of supercoiled pBR322 plasmid were incubated with 50 nM of E. coli DNA gyrase in reactions containing 35 mM Tris-HCl, 24 mM KCl, 4 mM MgCl2, 2 mM DTT, 0.1 mg/mL BSA, 6.5% glycerol, and 1.75 mM ATP, in presence of 200 µM of compounds, at 37° C. for 15 min. Then, 0.2% (w/v) of SDS and 0.1 mg/mL proteinase K were added, and samples were incubated at 37° C. for 1 h. […] Samples were examined by electrophoresis in 1% w/v agarose gel containing 0.5 µg/mL ethidium bromide and photographed under UV light.

E. coli DNA gyrase [5] = biological target: T1, E. coli DNA gyrase; assay: SDFQ-based DNA gyrase inhibition assay; type: biochemical
Description: 100 ng of DNA gyrase was used to supercoil the rx pAB1_FL905 in the presence of different concentrations of a gyrase inhibitor. […] The IC50 values were estimated by nonlinear fitting of the following equation: […]
where F is the fluorescence intensity at the x concentration of an min inhibitor. Fmax and Fmin are the maximum and minimum fluorescence of the DNA sample, respectively. P is a slope parameter.

E. coli DNA gyrase [6] = biological target: T1, E. coli DNA gyrase; assay: Agarose gel-based DNA gyrase inhibition assay; type: biochemical
Description: 100 ng of DNA gyrase was used to supercoil the rx pAB1 in the presence of different concentrations of a gyrase inhibitor. […] Samples were analyzed by electrophoresis in 1% w/v agarose gels followed by ethidium bromide staining and photographed under UV light.

B. subtilis (ATCC 6633) = assay: Minimum inhibitory concentration, broth microdilution; conditions: for MIC: Bacillus subtilis
Description: (§2) Antibacterial minimum inhibitory concentrations (MICs) were obtained from three independent experiments using broth microdilution methods in 96-well plates according to Clinical and Laboratory Standards Institute guidelines. Cells were culture from singles colonies in MHIIB medium for 24 h at 37° C. in agitation (200 RPM). The cultures were then diluted using the same media to reach an OD600 of 0.1. Then, 50 µL of the diluted cultures were added to the plates holding 50 µL of serially diluted compounds in MHIIB. The plates were incubated at 37° C. for 20 h. The starting inoculum was fixated to 10^5 colony-forming units per ml.

MRSA = assay: as above; conditions: for MIC: Staphylococcus aureus
J774 = conditions: 200 µM
S. aureus (ATCC 14775) = assay: Minimum inhibitory concentration, broth microdilution; conditions: for MIC: Staphylococcus aureus
Description: as §2

in vitro [7] = conditions: human
Mtb = Mtb whole cell assay (% inhibition, MIC); type: cell-based, Mycobacterium tuberculosis; conditions: for inhibition at 20 µM: Mycobacterium tuberculosis, Table 5 (same values in Table 6 at 20 µM)
in vitro [8] = conditions: mouse
Mtb DNA gyrase = Mtb DNA gyrase (Mycobacterium tuberculosis (strain ATCC 25618 / H37Rv), UniProt P9WG45+P9WG47); assay: Mtb DNA gyrase inhibition assay (gel-based); type: biochemical; conditions: for IC50: Table 5, Mtb gyrase, read-out: IC50 (µM) Mtb
Summary of the method: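 Supercoiling by 100 ng Mtb gyrase of 400 ng relaxed pAB1 in buffer with 1.75 mM ATP, pH 7.5, across inhibitor concentrations. Reactions ran 15 min at 37° C, stopped with SDS/EDTA. Products resolved on 1% agarose, ethidium bromide-stained; IC50 determined from gels.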

E. coli (ATCC 25922) = assay: Minimum inhibitory concentration, broth microdilution; conditions: for MIC: Escherichia coli
Description: as §2

[9] = biological target: T2, E. coli DNA topoisomerase IV (Escherichia coli (strain K12), UniProt P0AFI2+P20083); assay: E. coli DNA topoisomerase IV relaxation assay (gel-based); type: biochemical
T2 sequence (P0AFI2 whole entry, looked up): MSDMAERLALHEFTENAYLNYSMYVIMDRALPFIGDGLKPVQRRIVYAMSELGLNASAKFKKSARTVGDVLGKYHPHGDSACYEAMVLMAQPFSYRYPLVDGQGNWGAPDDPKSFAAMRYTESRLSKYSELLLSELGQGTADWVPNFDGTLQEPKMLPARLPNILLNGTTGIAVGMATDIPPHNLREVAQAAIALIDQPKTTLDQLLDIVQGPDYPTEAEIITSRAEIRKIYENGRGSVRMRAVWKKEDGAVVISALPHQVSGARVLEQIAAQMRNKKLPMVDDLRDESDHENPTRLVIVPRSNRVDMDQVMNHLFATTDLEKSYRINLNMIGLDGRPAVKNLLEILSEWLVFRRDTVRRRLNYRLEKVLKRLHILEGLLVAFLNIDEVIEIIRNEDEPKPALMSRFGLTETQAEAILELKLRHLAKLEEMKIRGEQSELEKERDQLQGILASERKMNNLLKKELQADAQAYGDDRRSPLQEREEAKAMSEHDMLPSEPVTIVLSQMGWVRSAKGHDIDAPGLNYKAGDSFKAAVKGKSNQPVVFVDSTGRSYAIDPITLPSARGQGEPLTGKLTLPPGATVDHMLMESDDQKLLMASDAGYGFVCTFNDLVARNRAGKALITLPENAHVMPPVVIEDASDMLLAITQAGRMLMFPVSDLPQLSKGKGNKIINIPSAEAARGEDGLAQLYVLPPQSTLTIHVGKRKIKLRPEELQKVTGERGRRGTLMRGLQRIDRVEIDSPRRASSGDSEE
T2 sequence (P20083 whole entry, looked up): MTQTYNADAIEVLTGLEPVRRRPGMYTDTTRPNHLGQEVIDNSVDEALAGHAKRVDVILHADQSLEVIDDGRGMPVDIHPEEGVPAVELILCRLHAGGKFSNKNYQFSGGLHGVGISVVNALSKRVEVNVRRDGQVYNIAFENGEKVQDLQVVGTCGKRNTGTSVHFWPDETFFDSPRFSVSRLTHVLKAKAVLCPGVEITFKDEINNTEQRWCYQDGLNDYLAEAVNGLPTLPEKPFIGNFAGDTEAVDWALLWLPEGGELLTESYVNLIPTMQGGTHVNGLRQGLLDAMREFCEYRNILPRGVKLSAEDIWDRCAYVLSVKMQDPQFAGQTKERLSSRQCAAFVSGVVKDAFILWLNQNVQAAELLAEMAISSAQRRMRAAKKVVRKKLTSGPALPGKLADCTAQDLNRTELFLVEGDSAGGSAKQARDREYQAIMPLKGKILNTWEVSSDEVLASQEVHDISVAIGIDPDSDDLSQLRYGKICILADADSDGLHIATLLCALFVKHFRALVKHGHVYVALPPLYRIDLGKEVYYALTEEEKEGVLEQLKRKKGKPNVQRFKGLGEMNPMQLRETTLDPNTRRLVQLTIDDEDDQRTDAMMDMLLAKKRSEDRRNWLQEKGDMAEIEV
Description: (§1) Relaxation assays by E. coli DNA topoisomerase IV and the ATPase assays were performed. […] Lane 1 is supercoiled plasmid pAB1. […] The supercoiled, fluorescently-labeled plasmid pAB1_FL905 was used.

E. coli imp [10] = assay: microbe, parasite or virus in culture; conditions: Escherichia coli, read-out: MIC E. coli imp BAS3023
Description: as §2

E. coli DNA gyrase [11] = biological target: T1, E. coli DNA gyrase; assay: E. coli DNA gyrase ATPase assay; type: biochemical
Description: E. coli DNA gyrase ATPase assays were performed in 60 µL of 1 ×gyrase ATPase buffer (10 mM Tris.HCl (pH 7.5), 0.2 mM EDTA, 1 mM magnesium chloride, 1 mM DTT, and 2% (w/v) glycerol) containing 50 nM E. coli DNA gyrase, 200 ng rx pAB1, 0.8 mM Phosphoenol pyruvate, 1.2 units of Pyruvate kinase, 1.7 units of lactate dehydrogenase, and 0.4 mM of NADH at 37° C. After the reaction mixtures are incubated on ice for 5 minutes, 2 mM of ATP is added to initiate the reaction. Absorbance at OD340nm is monitored for up to 30 minutes at 37° C. in a spectrophotometer.

[12] = biological target: E. coli DNA topoisomerase I (Escherichia coli (strain K12), UniProt P06612); assay: E. coli DNA topoisomerase I inhibition; type: biochemical; conditions: gallates at 100 µM
E. coli DNA topoisomerase I, sequence (P06612 whole entry, looked up): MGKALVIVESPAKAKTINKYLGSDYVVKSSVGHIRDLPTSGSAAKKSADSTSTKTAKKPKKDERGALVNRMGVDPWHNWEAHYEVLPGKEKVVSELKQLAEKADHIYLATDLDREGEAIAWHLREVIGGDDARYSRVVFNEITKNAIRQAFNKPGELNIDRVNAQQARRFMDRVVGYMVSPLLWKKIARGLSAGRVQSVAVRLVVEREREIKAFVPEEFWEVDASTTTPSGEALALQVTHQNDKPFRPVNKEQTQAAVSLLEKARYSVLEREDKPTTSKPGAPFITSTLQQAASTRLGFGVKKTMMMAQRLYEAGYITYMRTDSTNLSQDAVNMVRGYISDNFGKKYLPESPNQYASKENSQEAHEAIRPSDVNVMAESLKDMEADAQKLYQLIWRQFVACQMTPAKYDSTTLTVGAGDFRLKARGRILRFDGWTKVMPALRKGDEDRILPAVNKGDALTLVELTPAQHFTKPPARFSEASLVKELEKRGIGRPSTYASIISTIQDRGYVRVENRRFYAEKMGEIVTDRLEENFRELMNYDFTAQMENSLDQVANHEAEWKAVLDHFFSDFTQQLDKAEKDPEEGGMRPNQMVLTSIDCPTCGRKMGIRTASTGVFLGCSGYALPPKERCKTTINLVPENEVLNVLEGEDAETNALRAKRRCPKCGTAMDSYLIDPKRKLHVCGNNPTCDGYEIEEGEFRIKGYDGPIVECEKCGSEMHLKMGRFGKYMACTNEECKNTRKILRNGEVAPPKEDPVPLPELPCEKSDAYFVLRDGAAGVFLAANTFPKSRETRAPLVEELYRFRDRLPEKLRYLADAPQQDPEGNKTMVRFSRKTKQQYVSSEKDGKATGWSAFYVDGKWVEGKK

[13] = biological target: T2, E. coli DNA topoisomerase IV; assay: ATP hydrolysis activity of E. coli DNA topoisomerase IV; type: biochemical; conditions: 100 µM
Description: as §1

[14] = biological target: human DNA topoisomerase I (Homo sapiens (Human), UniProt P11387); assay: Human DNA topoisomerase I inhibition; type: biochemical; conditions: gallates at 100 µM
human DNA topoisomerase I, sequence (P11387 whole entry): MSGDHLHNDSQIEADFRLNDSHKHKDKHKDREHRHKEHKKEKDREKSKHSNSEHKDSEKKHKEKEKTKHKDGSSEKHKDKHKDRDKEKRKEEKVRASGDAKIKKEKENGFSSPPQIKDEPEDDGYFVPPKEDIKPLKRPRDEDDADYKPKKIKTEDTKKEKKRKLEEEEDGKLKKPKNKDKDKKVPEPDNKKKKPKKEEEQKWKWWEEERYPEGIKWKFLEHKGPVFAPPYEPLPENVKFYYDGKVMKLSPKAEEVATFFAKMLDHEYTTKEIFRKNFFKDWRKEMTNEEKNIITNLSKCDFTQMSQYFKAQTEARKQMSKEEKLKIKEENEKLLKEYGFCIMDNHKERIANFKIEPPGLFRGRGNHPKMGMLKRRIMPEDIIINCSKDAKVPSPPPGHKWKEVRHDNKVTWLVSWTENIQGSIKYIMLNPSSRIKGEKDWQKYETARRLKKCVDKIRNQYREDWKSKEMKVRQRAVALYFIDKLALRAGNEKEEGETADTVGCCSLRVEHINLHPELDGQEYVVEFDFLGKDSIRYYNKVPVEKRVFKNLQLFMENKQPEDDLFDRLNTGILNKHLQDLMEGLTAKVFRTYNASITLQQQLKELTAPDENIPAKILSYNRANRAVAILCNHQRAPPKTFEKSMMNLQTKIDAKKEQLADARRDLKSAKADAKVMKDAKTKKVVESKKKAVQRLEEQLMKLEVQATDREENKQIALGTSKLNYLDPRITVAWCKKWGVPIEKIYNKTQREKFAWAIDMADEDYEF

[15] = biological target: T2, E. coli DNA topoisomerase IV; assay: SDFQ-based DNA relaxation assay with E. coli DNA topoisomerase IV; type: biochemical
Description: as §1

E. coli topoisomerase IV = E. coli topoisomerase IV (Escherichia coli (strain K12), UniProt P0AFI2+P20083); assay: E. coli topoisomerase IV decatenation; type: biochemical; conditions: read-out: IC50 against E. coli topoisomerase IV
E. coli topoisomerase IV, sequence (P0AFI2 whole entry, looked up): as the sequence (P0AFI2 whole entry, looked up) above
E. coli topoisomerase IV, sequence (P20083 whole entry, looked up): as the sequence (P20083 whole entry, looked up) above

E. coli DNA gyrase [16] = biological target: T1, E. coli DNA gyrase; conditions: known inhibitors of the LOPAC library; read-out: inhibition IC50 against E. coli DNA gyrase; cited from earlier work
E. coli imp [17] = test system: E. coli imp
Description: as §2

[18] = IC50 against E. coli DNA gyrase
[19] = SDFQ-based, three independent experiments, read-out: IC50 against E. coli DNA gyrase
[20] = ATCC6633, read-out: Minimum Inhibitory Concentration B.subtilis
[21] = IC50 (µM) EC, Table 5, E. coli gyrase
[22] = MRSA, read-out: Minimum Inhibitory Concentration S.aureus MRSA
[23] = ATCC14775, read-out: MIC (µM) SA
[24] = ATCC14775, read-out: Minimum Inhibitory Concentration S.aureus

CC(OC(=O)c1cc(O)c2ccccc2c1O)C(=O)Nc1ccc(C(N)=O)cc1 (centres unmarked) [Compound 40, 1-[(4-carbamoylphenyl)carbamoyl]ethyl 1,4-dihydroxynaphthalene-2-carboxylate]
IC50 (E. coli DNA gyrase [1]; IC50 (50-200 µM), bin of Table 2): 50 to 200 µM | IC50 (E. coli DNA gyrase [1]; [18]): 50 µM | human topoisomerase 2α-mediated DNA nicks and double-stranded breaks [2]: does not cause | inhibition of human DNA topoisomerase IIα [3]: does not inhibit | E. coli DNA gyrase-mediated DNA breaks and nicking (E. coli DNA gyrase [4]): causes DNA gyrase-mediated double stranded DNA breaks and DNA nicking; also recorded: causes gyrase-mediated DNA double-stranded breaks and single-stranded nicks | IC50 (E. coli DNA gyrase [5]; [19]): 47.6 ± 3.7 µM | inhibition of E. coli DNA gyrase activities (E. coli DNA gyrase [6]; 200 µM of compounds): completely inhibited | anti Bacillu subtilis activities (B. subtilis (ATCC 6633)): 39 µg/mL | MIC (B. subtilis (ATCC 6633); [20]): 100 µM (≈ 39.4 µg/mL)

Cc1c(CCC(=O)O)c(=O)oc2c(C)c3occ(-c4ccc(-c5ccccc5)cc4)c3cc12 [Compound 119]
IC50 (E. coli DNA gyrase [1]; [21]): 7.7 µM | MIC (MRSA; MRSA, read-out: MIC (µM) MRSA): 0.8 µM | MIC (MRSA; [22]): 0.78 µM | IC50 [3]: 133 µM | cytotoxicity J774 (J774): no cytotoxicity | MIC (S. aureus (ATCC 14775); [23]): 0.8 µM (≈ 0.351 µg/mL) | MIC (S. aureus (ATCC 14775); [24]): 0.78 µM (≈ 0.342 µg/mL) | IC50 (in vitro [7]): > 200 µM | activity against Mtb (Mtb): most active | inhibition at 20 µM (Mtb): 70.4% | inhibition of E. coli DNA gyrase activities (E. coli DNA gyrase [6]; 50 µM of compounds): completely inhibited | IC50 (in vitro [8]): > 200 µM | inhibition of Mtb DNA gyrase activities (Mtb DNA gyrase): potent Mtb gyrase inhibitors | IC50 (Mtb DNA gyrase): 16 µM

Cc1c(CCC(=O)O)c(=O)oc2c(C)c3occ(-c4ccc5ccccc5c4)c3cc12 [Compound 124]
IC50 (E. coli DNA gyrase [1]; [21]): 5.5 µM | MIC (MRSA; MRSA, read-out: MIC (µM) MRSA): 1.6 µM | MIC (MRSA; [22]): 1.56 µM | IC50 [3]: 117 µM | cytotoxicity J774 (J774): no cytotoxicity | MIC (S. aureus (ATCC 14775); [23]): 1.6 µM (≈ 0.66 µg/mL) | MIC (S. aureus (ATCC 14775); [24]): 1.56 µM (≈ 0.643 µg/mL) | IC50 (in vitro [7]): > 200 µM | activity against Mtb (Mtb): most active | inhibition at 20 µM (Mtb): 80.4% | inhibition of E. coli DNA gyrase activities (E. coli DNA gyrase [6]; 50 µM of compounds): completely inhibited | IC50 (in vitro [8]): > 200 µM | inhibition of Mtb DNA gyrase activities (Mtb DNA gyrase): potent Mtb gyrase inhibitors | IC50 (Mtb DNA gyrase): 3 µM

N=C(N)Nc1nc(-c2ccccc2)c2cc(Cl)ccc2n1 [Compound 154, N-(6-chloro-4-phenylquinazolin-2-yl)guanidine]
IC50 (E. coli DNA gyrase [1]; [18]): 7 µM | MIC (MRSA; [22]): 25 µM | human topoisomerase 2α-mediated DNA nicks and double-stranded breaks [2]: causes the human topoisomerase 2a-mediated DNA nicks and double-stranded breaks | IC50 [3]: ~50 µM | MIC (E. coli (ATCC 25922); ATCC25922, read-out: Minimum Inhibitory Concentration E. coli, Tables 3a-3c): 50 µM (≈ 14.9 µg/mL) | E. coli DNA gyrase-mediated DNA breaks and nicking (E. coli DNA gyrase [4]): causes the gyrase-mediated DNA double-stranded breaks and single-stranded nicks | IC50 (E. coli DNA gyrase [5]; [19]): 3.1 ± 0.7 µM | MIC (S. aureus (ATCC 14775); [24]): 25 µM (≈ 7.44 µg/mL) | inhibition of E. coli DNA topoisomerase IV [9]: inhibits | inhibition of E. coli DNA gyrase activities (E. coli DNA gyrase [6]; 50 µM of compounds): completely inhibited | MIC (B. subtilis (ATCC 6633); [20]): 25 µM (≈ 7.44 µg/mL)

O=C(O)c1cc(O)c(O)c(OC(=O)c2cc(O)c(O)c(O)c2)c1 [Digallic acid, digallic acid]
MIC (MRSA; ATCC33591 / MRSA, read-out: MIC MRSA ATCC 33591): 200 µM | MIC (MRSA; ATCCBAA44 / MRSA, read-out: MIC S. aureus (MRSA) ATCC BAA44): 64 µg/mL | MIC (E. coli imp [10]): > 200 µM | inhibition of the ATPase activities of E. coli DNA gyrase (E. coli DNA gyrase [11]; AB-MECA and gallates at 100 µM): competitive inhibitor | Ki (E. coli DNA gyrase [11]; ATPase, ATP competitive, read-out: Ki): 0.347 µM | inhibition of human DNA topoisomerase IIα [3]: do not inhibit; also recorded: did not strongly inhibit | MIC (E. coli (ATCC 25922); ATCC25922, read-out: MIC E coli ATCC 25922, Table 9): > 200 µM | E. coli DNA gyrase-mediated DNA breaks and nicking (E. coli DNA gyrase [4]): not bacterial DNA gyrase poisons | IC50 (E. coli DNA gyrase [5]; Table 8, read-out: IC50 Gyrase SDFQ): 1.9 µM | MIC (S. aureus (ATCC 14775); ATCC14775, read-out: MIC S. aureus ATCC 14775): 64 µg/mL and 200 µM | inhibition of E. coli DNA topoisomerase I [12]: do not inhibit; also recorded: did not strongly inhibit | inhibition of the ATPase activities of bacterial DNA topoisomerase IV [13]: inhibit the ATPase activities | inhibition of human DNA topoisomerase I [14]: do not inhibit; also recorded: did not strongly inhibit | IC50 ([9]; IC50 Topoisomerase IV Gel-based, Table 8): 8 µM | IC50 ([9]; IC50 against E. coli DNA topoisomerase IV, relaxation): ~8 µM | IC50 (E. coli DNA gyrase [6]; gel-based, read-out: IC50 against E. coli DNA gyrase): 2 µM | MIC (B. subtilis (ATCC 6633); ATCC6633, read-out: MIC B. subtilis ATCC 6633): > 64 µg/mL and > 200 µM | IC50 [15]: 7.3 µM | IC50 (E. coli topoisomerase IV): ~4 µM

CCn1cc(C(=O)O)c(=O)c2ccc(C)nc21 [nalidixic acid]
IC50 (E. coli DNA gyrase [16]): > 30 µM

CCn1cc(C(=O)O)c(=O)c2cc3c(cc21)OCO3 [oxolinic acid]
IC50 (E. coli DNA gyrase [16]): > 30 µM

biphenyl gallate
MIC MRSA ATCC 33591 (MRSA): 50 µM | MIC S. aureus (MRSA) ATCC BAA44 (MRSA): 16 µg/mL | MIC E. coli imp (E. coli imp [17]; Table 7): 36.43 µg/mL | MIC E. coli imp BAS3023 (E. coli imp [17]; Table 9): 200 µM | MIC E coli ATCC 25922 (E. coli (ATCC 25922)): >200 µM | MIC E. coli ATCC 25922 (E. coli (ATCC 25922)): 517.29 µg/mL | MIC S. aureus ATCC 14775 (S. aureus (ATCC 14775)): 16 µg/mL and 50 µM | MIC B. subtilis ATCC 6633 (B. subtilis (ATCC 6633)): 16 µg/mL and 50-100 µM
